This is an account of results in paper PMC11249637, “Interaction of the Atypical Tetracyclines Chelocardin and Amidochelocardin with Renal Drug Transporters” (ACS Pharmacology & Translational Science, 2024).

One assay concerns the target T1, mMdr1b (Mus musculus, UniProt P06795).
T1 construct: expressed in transfected cells; host or cells: HEK293
As to the kind of experiment: Two-point inhibition of mMdr1b-mediated efflux of rhodamin123 in transfected HEK293 cells. The assay is classed as in vitro ADME. The conditions noted are these: rhodamin123 10 μM, efflux 30 min. The method, then: (§1) Well-characterized mOct1-, mOct2-, mOat1-, mOat2-, mOat3-, mMate1-, hOAT1-, hOAT3-, hOAT4-, hMRP2-, mMdr1a- and mMdr1b-transfected HEK293 cells and the respective vector-transfected control HEK293 cells were used.[42],[51],[52] All HEK293 cells (transporter-transfected and vector-transfected) were cultured in DMEM (Sigma, high glucose, 10% FBS, 1% penicillin (10,000 Units/mL)/streptomycin (10 mg/mL)) at 37°C under 5% CO2 in humidified atmosphere. The cells were routinely checked for the absence of mycoplasma infection. For the preparation of HEK293 cell monolayers, 24-well plates were pretreated with a poly-D-lysine hydrobromide solution (0.1 mg/mL). Each well was coated with 0.5 mL of poly-D-lysine solution and incubated for at least 15 min. […]
For efflux assays, growth medium was aspirated, and each well was rinsed twice with 0.5 mL of incubation HBSS buffer (supplemented with 20 mM HEPES, pH 7.4) and then preincubated in 200 μL of incubation buffer containing 10 μM rhodamin123 and 10 μM cyclosporine A for 60 min at 37 °C for loading the cells with rhodamin123. […] Samples were diluted with incubation buffer, and fluorescence was measured in a 96-well plate (Sarstedt, flat bottom) at an extinction of 490 nm and emission of 535 nm. […]
The inhibitory effect I (%) and the efflux ratio was calculated in the same way described for the uptake assays.

The target of another assay is T2, mOat3 (Mus musculus, UniProt O88909).
T2 construct: expressed in transfected cells; host or cells: HEK293
T2 sequence (O88909 1-537): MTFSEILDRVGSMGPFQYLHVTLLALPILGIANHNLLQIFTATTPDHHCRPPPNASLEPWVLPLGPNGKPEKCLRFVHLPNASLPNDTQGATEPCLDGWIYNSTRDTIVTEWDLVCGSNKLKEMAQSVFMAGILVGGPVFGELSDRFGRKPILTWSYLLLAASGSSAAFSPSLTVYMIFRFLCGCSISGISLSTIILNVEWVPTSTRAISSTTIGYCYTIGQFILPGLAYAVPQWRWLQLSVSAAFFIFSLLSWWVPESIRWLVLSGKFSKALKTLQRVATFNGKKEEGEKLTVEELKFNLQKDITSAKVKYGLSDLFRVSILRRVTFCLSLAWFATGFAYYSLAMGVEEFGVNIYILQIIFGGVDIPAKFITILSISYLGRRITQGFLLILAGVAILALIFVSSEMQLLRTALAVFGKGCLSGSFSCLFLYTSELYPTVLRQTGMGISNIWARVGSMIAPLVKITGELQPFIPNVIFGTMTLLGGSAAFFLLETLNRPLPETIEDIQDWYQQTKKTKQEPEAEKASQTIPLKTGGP
As to the kind of experiment: Two-point inhibition of mOat3-mediated ES uptake in transfected HEK293 cells. The format is in vitro ADME. The conditions noted are these: ES 1 μM, 1 min. The method, then:
as §1, with “mg/mL).” for “mg/mL). Each well was coated with 0.5 mL of poly-D-lysine solution and incubated for at least 15 min.”
For the uptake assay, the growth medium was aspirated, and each well was rinsed three times with 0.5 mL of incubation buffer (HBSS supplemented with 20 mM HEPES, pH 7.4) and incubated for 20 min at 37 °C. […] Cells were solubilized with 0.6 mL of 1N NaOH overnight and transferred into scintillation vials. ^3H and ^14C contents were measured after the addition of 2.5 mL of scintillator in a liquid scintillation counter.
The cellular protein amount was determined in parallel for each cell line (vector- and transporter-transfected) from six wells in a different 24-well reference plate using the Bradford method. […]
The inhibitory effect (I(%)) was calculated according to the formula: [drawing 5] […]

SMILES strings stand for the structures.

T1 sequence (P06795 whole entry): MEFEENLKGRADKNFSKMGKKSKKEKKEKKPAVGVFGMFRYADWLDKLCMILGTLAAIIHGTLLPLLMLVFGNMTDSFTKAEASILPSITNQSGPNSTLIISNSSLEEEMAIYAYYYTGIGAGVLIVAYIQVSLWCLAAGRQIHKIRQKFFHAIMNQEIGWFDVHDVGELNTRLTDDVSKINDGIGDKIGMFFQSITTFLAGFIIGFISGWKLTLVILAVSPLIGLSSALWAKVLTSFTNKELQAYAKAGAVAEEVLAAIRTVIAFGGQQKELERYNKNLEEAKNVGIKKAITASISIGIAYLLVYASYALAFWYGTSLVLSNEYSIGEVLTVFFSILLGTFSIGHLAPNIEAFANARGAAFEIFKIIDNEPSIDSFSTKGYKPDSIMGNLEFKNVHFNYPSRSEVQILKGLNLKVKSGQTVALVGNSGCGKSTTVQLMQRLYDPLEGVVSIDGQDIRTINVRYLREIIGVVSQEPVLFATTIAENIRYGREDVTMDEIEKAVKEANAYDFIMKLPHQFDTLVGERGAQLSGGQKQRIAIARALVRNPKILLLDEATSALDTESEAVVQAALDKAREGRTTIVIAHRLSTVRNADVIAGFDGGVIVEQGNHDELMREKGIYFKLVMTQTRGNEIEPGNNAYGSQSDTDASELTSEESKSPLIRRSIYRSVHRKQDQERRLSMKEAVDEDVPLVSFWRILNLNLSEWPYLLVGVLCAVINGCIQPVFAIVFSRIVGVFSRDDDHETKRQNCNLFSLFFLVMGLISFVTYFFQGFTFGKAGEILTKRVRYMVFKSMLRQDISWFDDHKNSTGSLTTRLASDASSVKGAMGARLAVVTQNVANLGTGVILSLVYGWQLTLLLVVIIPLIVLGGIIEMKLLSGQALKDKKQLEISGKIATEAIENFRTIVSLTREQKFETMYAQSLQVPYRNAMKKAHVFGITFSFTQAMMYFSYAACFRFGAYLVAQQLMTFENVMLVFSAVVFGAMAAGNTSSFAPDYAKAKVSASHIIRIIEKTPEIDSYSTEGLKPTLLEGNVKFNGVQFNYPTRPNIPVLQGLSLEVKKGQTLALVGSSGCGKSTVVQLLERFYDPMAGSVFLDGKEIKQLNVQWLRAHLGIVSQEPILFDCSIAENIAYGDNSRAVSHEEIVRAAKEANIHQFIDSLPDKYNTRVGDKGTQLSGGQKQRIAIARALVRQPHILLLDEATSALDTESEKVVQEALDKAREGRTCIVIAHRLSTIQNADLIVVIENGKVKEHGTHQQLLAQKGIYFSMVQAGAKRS

Consider `Cc1ccc2c(C)c3c(c(O)c2c1O)C(=O)[C@@]1(O)C(=O)C(C(N)=O)=C(O)[C@@H](N)[C@H]1C3` [CDCHD, amidochelocardin], for which the inhibition at 10 µM at mMdr1b (HEK293, at 10 μM, read-out: inhibitory effect on mMdr1b) was approximately 30%. For the same compound, the “inhibitory effect on mOat3 (in words)” value on mOat3 (1 and 10 μM) is recorded as “no inhibitory effect”.

As to `CC(=O)C1=C(O)[C@@H](N)[C@H]2Cc3c(c(O)c4c(O)c(C)ccc4c3C)C(=O)[C@@]2(O)C1=O` [CHD, chelocardin], the “inhibitory effect on mMdr1b (in words)” value on mMdr1b (1 and 10 μM) is “no effect”. Further, the inhibition at 10 µM on mOat3 (HEK293, at 10 μM, read-out: inhibitory effect on mOat3) was more than 50%.
